According to patent publication US20210353579A1, “HIGH PENETRATION COMPOSITIONS AND USES THEREOF” (Techfields Pharma Co., Ltd., priority 2006, published 2021):

Key:
[1] = test system: rats; experiment: Antipyretic activity, E. coli suspension as pyrogen; format: in vivo; settings: in °C (unit assumed)
Protocol: Rats are administered with sterilized E. coli suspension as a pyrogen. Each group of rats are administered with a prodrug compounds or parent compounds at a dosage specified below. The prodrug compounds are administered either orally or transdermally. The parent compounds are administered orally.

[2] = Plasma levels after transdermal administration to hairless mice; format: in vivo; settings: mouse, in vivo
Protocol: Tested compounds (20% solution or suspension in 1 mL isopropanol) are administered transdermally to the skin of intact hairless mice. The plasma levels of the parent compounds are determined by HPLC.

[3] = test system: mice (SLAC:NOD-IDDM, type 1 diabetes); experiment: Blood glucose in type 1 diabetes mice, transdermal; format: in vivo, mouse; settings: for Blood glucose, Average: average fourth to seventh week, no fasting, equal to 30 mg/kg of NSAIAs once per day for 7 weeks; for Blood glucose, Baseline: equal to 30 mg/kg of NSAIAs
Text: The pro-drugs in this invention lower blood glucose levels in mouse models (SLAC:NOD-IDDM, type 1 diabetes, n=7). 50% acetone solution of diethylaminoethyl acetylsalicylate.acetylsalicylic acid salt (P-1, in acetone); 4-acetamidophenyl salicylyldimethylaminobutyrate.HCl (P-6), diethylaminoethyl 5-(2,4-difluorophenyl) acetylsalicylate.5-(2,4-difluorophenyl) acetylsalicylic acid salt (P-8), diethylaminoethyl salicylsalicylate.AcOH (P-9), diethylaminoethyl salicylate.AcOH (P-10), diethylaminoethyl 5-acetamido-acetylsalicylate (P-58), diethylaminoethyl acetylsalicylsalicylate. acetylsalicylsalicylic acid salt (P-59), diethylaminoethyl acetylsalicylsalicylate. acetylsalicylsalicylsalicylic acid salt (P-60) (equal to of 30 mg/kg of NSAIAs) were administered transdermally to the backs (about 1.5 cm^2) of mice (fur was shaved) once per day (at 8 am) for 7 weeks. The blood glucose levels were measured once every 3 days at 3 pm (no fasting) from the fourth week to the seventh week.

[4] = test system: rats (SLAC/GK, type 2 diabetes); experiment: Blood lipid in type 2 diabetes rats, transdermal; format: in vivo, rat; settings: for Cholesterol (HDL), Baseline / Cholesterol (total), Baseline / Triglycerides, Baseline: equal to 20 mg/kg of NSAIAs; for Cholesterol (HDL), Average / Cholesterol (total), Average / Triglycerides, Average: end of the fifth week, equal to 20 mg/kg of NSAIAs once per day
Text: (§1) HPPs lower blood glucose level in rat models (SLAC/GK, type 2 diabetes, n=7). 50% acetone solution of diethylaminoethyl acetylsalicylate.acetylsalicylic acid salt (P-1, in acetone); 4-acetamidophenyl salicylyldimethylaminobutyrate.HCl (P-6), diethylaminoethyl 5-(2,4-difluorophenyl) acetylsalicylate.5-(2,4-difluorophenyl).acetylsalicylic acid salt (P-8), diethylaminoethyl salicylsalicylate.AcOH (P-9), diethylaminoethyl salicylate.AcOH (P-10), diethylaminoethyl 5-acetamido-acetylsalicylate (P-58), diethylaminoethyl acetylsalicylsalicylate.acetylsalicylsalicylic acid salt (P-59), diethylaminoethyl acetylsalicylsalicylate.acetylsalicylsalicylsalicylic acid salt (P-60) (equal to of 20 mg/kg of NSAIAs) are administered transdermally to the backs (about 1.5 cm^2) of rats (fur was shaved) once per day (at 8 am) for 5 weeks. The blood glucose levels are measured once every 3 days at 3 pm (no fasting) from the second week to the fifth week (Table 24). The blood lipid levels are measured at the end of the fifth week (Table 25).

[5] = test system: rats (SLAC/GK, type 2 diabetes); experiment: Blood glucose in type 2 diabetes rats, oral with food; format: in vivo, rat; settings: for Blood glucose, Diabetic rats, Average: average second to fifth week, no fasting, equal to 20 mg/kg of NSAIAs every day for 5 weeks; for Blood glucose, Diabetic rats, Baseline: equal to 20 mg/kg of NSAIAs
Text: (§2) 20% acetone solution of diethylaminoethyl acetylsalicylate.acetylsalicylic acid salt (P-1, in acetone); 4-acetamidophenyl salicylyldimethylaminobutyrate.HCl (P-6), diethylaminoethyl 5-(2,4-difluorophenyl) acetylsalicylate.5-(2,4-difluorophenyl) acetylsalicylic acid salt (P-8), diethylaminoethyl salicylsalicylate.AcOH (P-9), diethylaminoethyl salicylate.AcOH (P-10), diethylaminoethyl 5-acetamido-acetylsalicylate (P-58), diethylaminoethyl acetylsalicylsalicylate. acetylsalicylsalicylic acid salt (P-59), diethylaminoethyl acetylsalicylsalicylate. acetylsalicylsalicylsalicylic acid salt (P-60) (equal to of 20 mg/kg of NSAIAs) were mixed with food and were orally administered to the rats (SLAC/GK, type 2 diabetes, n=7) with food every day for 5 weeks. The blood glucose levels were measured once every 3 days at 3 pm (no fasting) from the second week to the fifth week. The blood lipid levels were measured at the end of the fifth week.

[6] = test system: rats (SLAC/GK, type 2 diabetes); experiment: Blood glucose in type 2 diabetes rats, transdermal; format: in vivo, rat; settings: diabetic rats (SLAC/GK); for Blood glucose, Average: average second to fifth week, no fasting, equal to 20 mg/kg of NSAIAs once per day for 5 weeks; for Blood glucose, Baseline: equal to 20 mg/kg of NSAIAs once per day
Text: as §1

[7] = test system: normal rats; experiment: Blood glucose in normal rats, transdermal; format: in vivo, rat; settings: for Blood glucose, Average: normal rats (second Average line of Table 24), average second to fifth week, equal to 20 mg/kg of NSAIAs once per day; for Blood glucose, Baseline: normal rats (second Baseline line of Table 24), equal to 20 mg/kg of NSAIAs
Text: as §1, with “25). […]” for “25).”

[8] = test system: mice; experiment: Analgesic activity, D'Amour-Smith method (tail heat, pain threshold); format: in vivo; settings: 200 mg/kg transdermally vs 200 mg/kg diflunisal orally
Protocol: After the tested compounds are administered (the dosages for each test compounds are specified in FIG. 3, prodrug compounds are administered orally and transdermally respectively in different groups, while parent compounds are administered orally) to a group of mice (six mice every group), the tails of mice are exposed to heat and the prolongation time of pain threshold is determined. […] The prodrug compounds show similar analgesic activities when the same dosages are administered orally or transdermally. (FIG. 3)

[9] = test system: human skin tissue; settings: pH 7.4
[10] = test system: rats (SLAC/GK, type 2 diabetes); experiment: Blood lipid in type 2 diabetes rats, oral with food; format: in vivo, rat; settings: for Cholesterol (HDL), Baseline / Cholesterol (total), Baseline / Triglycerides, Baseline: equal to 20 mg/kg of NSAIAs; for Cholesterol (HDL), Average / Cholesterol (total), Average / Triglycerides, Average: end of the fifth week, equal to 20 mg/kg of NSAIAs every day
Text: as §2

[11] = test system: normal rats; experiment: Blood glucose in normal rats, oral with food; format: in vivo, rat; settings: for Blood glucose, Normal rats, Average: average second to fifth week, equal to 20 mg/kg of NSAIAs every day; for Blood glucose, Normal rats, Baseline: equal to 20 mg/kg of NSAIAs
[12] = test system: rat; settings: rats;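 also: acute toxicity in rats expressed as LD50, determined for both prodrugs and their parent compounds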
Protocol: The acute toxicity of the prodrug compounds and parent compounds are measured by LD50 of rat.

[13] = test system: mice; experiment: Analgesic activity, acetic acid writhing; format: in vivo; settings: 30 min before acetic acid
Protocol: The prodrug compounds are administered either transdermally or orally. The parent compounds are administered orally. The number of writhing that occurred when mice are administered the acetic acid solution are counted, and the rate of inhibition based on the control group which was not pretreated with any test compounds is calculated. […] The A group is the control group.

Row | SMILES | body temperature, t = 0 min ([1]; 100 mg/kg transdermally) | body temperature, t = 90 min ([1]; 100 mg/kg transdermally) | body temperature, t = 180 min ([1]; 100 mg/kg transdermally) | body temperature, t = 270 min ([1]; 100 mg/kg transdermally) | body temperature, t = 0 min ([1]; 150 mg/kg transdermally) | body temperature, t = 90 min ([1]; 150 mg/kg transdermally) | body temperature, t = 180 min ([1]; 150 mg/kg transdermally) | body temperature, t = 270 min ([1]; 150 mg/kg transdermally) | Peak plasma concentration of parent compound after prodrug compound [2] [mg/L] | t, time to peak plasma level of parent compound after prodrug compound [2] [min] | Blood glucose, Average [3] [mmol/L] | Blood glucose, Baseline [3] [mmol/L] | Cholesterol (HDL), Baseline [4] [mmol/L] | Cholesterol (total), Baseline [4] [mmol/L] | Triglycerides, Baseline [4] [mmol/L] | Cholesterol (HDL), Average [4] [mmol/L] | Cholesterol (total), Average [4] [mmol/L] | Triglycerides, Average [4] [mmol/L] | Blood glucose, Diabetic rats, Average [5] [mmol/L] | Blood glucose, Diabetic rats, Baseline [5] [mmol/L] | other results
1 | CC(=O)O.CCN(CC)CCOC(=O)c1ccccc1OC(=O)c1ccccc1O [diethylaminoethyl salicylsalicylate.AcOH] | 37.28 ± 0.06 | 36.75 ± 0.06 | 36.78 ± 0.08 | 36.80 ± 0.07 | 37.26 ± 0.05 | 36.45 ± 0.05 | 36.40 ± 0.07 | 36.50 ± 0.05 | 40 | 30 | 9.4 ± 1 | 26.5 ± 4 | 1.3 ± 0.1 | 7.7 ± 0.5 | 5.3 ± 0.5 | 1.4 ± 0.2 | 4.8 ± 0.4 | 2.4 ± 0.2 | 7.6 ± 1 | 16.5 ± 4 | Blood glucose, Average [6]: 8.4 ± 1 mmol/L; Blood glucose, Baseline [6]: 16.5 ± 4 mmol/L; Blood glucose, Average [7]: 6.7 ± 1 mmol/L; Blood glucose, Baseline [7]: 6.5 ± 1 mmol/L; analgesic activity, prolongation time of pain threshold of mice tails [8]: stronger analgesic activity; In vitro penetration rate (apparent flux), prodrug compounds [9]: 80 μg/cm^2/h; Cholesterol (HDL), Baseline [10]: 1.5 ± 0.1 mmol/L; Cholesterol (total), Baseline [10]: 7.9 ± 0.5 mmol/L; Triglycerides, Baseline [10]: 5.8 ± 0.6 mmol/L; Cholesterol (HDL), Average [10]: 1.4 ± 0.2 mmol/L; Cholesterol (total), Average [10]: 5.6 ± 0.4 mmol/L; Triglycerides, Average [10]: 2.7 ± 0.2 mmol/L; Blood glucose, Normal rats, Average [11]: 6.6 ± 1 mmol/L; Blood glucose, Normal rats, Baseline [11]: 6.3 ± 1 mmol/L; LD50 of HPP [12]: 2000 mg/kg; % (rate of writhing inhibition) ([13]; 50 mg/kg transdermally): 59%; No. of Writhing ([13]; 50 mg/kg transdermally): 14.2; % (rate of writhing inhibition) ([13]; 100 mg/kg transdermally): 65%; No. of Writhing ([13]; 100 mg/kg transdermally): 12.0
2 | CC(=O)O.CCN(CC)CCOC(=O)c1ccccc1O [diethylaminoethyl salicylate.AcOH] | 37.28 ± 0.06 | 36.85 ± 0.06 | 36.88 ± 0.08 | 36.86 ± 0.07 | 37.26 ± 0.05 | 36.55 ± 0.05 | 36.60 ± 0.07 | 36.65 ± 0.05 | 40 | 30 | 8.2 ± 1 | 25.8 ± 3 | 1.6 ± 0.2 | 7.1 ± 0.5 | 5.6 ± 0.6 | 1.5 ± 0.1 | 4.9 ± 0.4 | 2.5 ± 0.2 | 7.8 ± 1 | 15.6 ± 3 | Blood glucose, Average [6]: 8.2 ± 1 mmol/L; Blood glucose, Baseline [6]: 15.8 ± 3 mmol/L; Blood glucose, Average [7]: 6.9 ± 1 mmol/L; Blood glucose, Baseline [7]: 6.8 ± 1 mmol/L; analgesic activity, prolongation time of pain threshold of mice tails [8]: stronger analgesic activity; In vitro penetration rate (apparent flux), prodrug compounds [9]: 60 μg/cm^2/h; Cholesterol (HDL), Baseline [10]: 1.6 ± 0.2 mmol/L; Cholesterol (total), Baseline [10]: 7.6 ± 0.5 mmol/L; Triglycerides, Baseline [10]: 5.7 ± 0.6 mmol/L; Cholesterol (HDL), Average [10]: 1.7 ± 0.1 mmol/L; Cholesterol (total), Average [10]: 5.2 ± 0.5 mmol/L; Triglycerides, Average [10]: 2.6 ± 0.2 mmol/L; Blood glucose, Normal rats, Average [11]: 6.9 ± 1 mmol/L; Blood glucose, Normal rats, Baseline [11]: 6.7 ± 1 mmol/L; LD50 of HPP [12]: 1600 mg/kg; % (rate of writhing inhibition) ([13]; 50 mg/kg transdermally): 60%; No. of Writhing ([13]; 50 mg/kg transdermally): 14.0; % (rate of writhing inhibition) ([13]; 100 mg/kg transdermally): 66%; No. of Writhing ([13]; 100 mg/kg transdermally): 11.9
